Values of other authors in patent US10029078B2, “Pancreas perfusion apparatus, method for controlling same, and method for pancreas perfusion” (KOSEI ADVANCE CO., LTD., priority 2013, dated 2018).

System: unresectable pancreatic cancer
Conditions: patients with unresectable pancreatic cancer, systemic chemotherapy

SMILES: Nc1ccn([C@@H]2O[C@H](CO)[C@@H](O)C2(F)F)c(=O)n1 [gemcitabine]
- median survival time: approximately 6 months
- response rate: approximately 10%
